Assays:
[1] = test system: adult males of white peach scale; test: Field sticky-trap attraction test in a tea field, adult males of white peach scale; format: in vivo, Pseudaulacaspis pnetagona; details: number attracted to trap relative to Comparative Example 1 (100% Z isomer) = 100, rubber cap with 0.1 mg in total of Z and E isomers, June 2007
Procedure: (§1) In accordance with the process described in J. Org. Chem. 1980, 45, 2910-2913, (R,Z)-(+)-3,9-dimethyl-6-isopropenyl-3,9-decadienyl propionate, the sex pheromone of white peach scale, was synthesized. The product thus obtained was separated into the Z isomer and the E isomer by using medium-pressure liquid column chromatography. A gray rubber cap (produced by West in US) impregnated with 0.1 mg in total of the Z isomer and the E isomer at a weight ratio of 100:0, 90:10, 80:20, 70:30, 60:40, 50:50, 40:60, 20:80 or 0:100 was used as an attractant for test.
(§2) In the emerging season of first-generation adult males of white peach scale in June, 2007, the attractant described above was attached to a white sticky trap and placed at intervals of 10 m on ridges in a tea field. The numbers of adult males of white peach scale and Thomsonisca amathus, a parasitoid wasp and natural enemy thereof, which had stuck to the sticky plates, was counted every day, respectively.
(§3) When the number of adult males of white peach scale attracted to the trap in Comparative Example 1 comprising an attractant containing 100% of (R,Z)-(+)-3,9-dimethyl-6-isopropenyl-3,9-decadienyl propionate was assigned as 100, the number attracted to each trap was calculated as a relative value. In the attraction test of Thomsonisca amathus, similar data processing was performed.

Thomsonisca amathus = test: Field sticky-trap attraction test in a tea field, natural-enemy parasitoid wasp; format: in vivo; details: number attracted to trap relative to Comparative Example 1 (100% Z isomer) = 100, rubber cap with 0.1 mg in total of Z and E isomers, white sticky trap, June 2007
Procedure: as §1, §2, §3

Compound | attraction of adult males of white peach scale [1] [%] | attraction of Thomsonisca amathus (Thomsonisca amathus) [%]
C=C(C)CC[C@H](C/C=C(\C)CCOC(=O)CC)C(=C)C [Comp.Ex. 4, (R,E)-(+)-3,9-dimethyl-6-isopropenyl-3,9-decadienyl propionate] | 0.0 | 0.0
C=C(C)CC[C@H](C/C=C(/C)CCOC(=O)CC)C(=C)C [Comp.Ex. 1, (R,Z)-(+)-3,9-dimethyl-6-isopropenyl-3,9-decadienyl propionate] | 100.0 | 100.0

Source: patent US20110172304A1, “Sex Attractant of White Peach Scale and Attraction Method” (Shin-Etsu Chemical Co., Ltd., priority 2010, published 2011)
